Measurements as given in US9988632B2, “Composition including pint gene expression inhibitor or pint activity inhibitor and use thereof” (Samsung Electronics Co., Ltd., priority 2015, dated 2018).

Key:
Format in all cases: cell-based, human
PINT lincRNA = PINT lincRNA levels (qPCR) in young cells in the presence of DNA damage inducers; conditions: 10 μM, 24 hours, level in absence of DNA damage inducers taken as 1
Experimental: PINT lincRNA levels were measured according to DNA damage in cells. The cells were young cells HDF(M4) and HDF(neonatal) derived from humans, explained in section 1.
As a negative control, the cells were treated with dimethyl sulfoxide (DMSO) (Sigma-Aldrich). Thereafter, mRNAs were isolated from all the cells, and then quantitative polymerase chain reaction (qPCR) was performed using nucleotide sequences of SEQ ID NOS: 22 and 24 as PINT primers to measure PINT levels.

PINT = PINT level (qPCR) after siRNA transfection; conditions: HDF(neonatal) cells, 25 nM siRNA, 72 hours, vs scramble siRNA
Excerpt: In detail, the young cells were human dermal fibroblast (HDF) (hereinafter, referred to as ‘HDF cell’ or ‘HDF (neonatal)’) obtained from neonatal foreskin, human dermal fibroblast (HDF) M4 cell (hereinafter, referred to as ‘HDF M4 cell’ or ‘HDF (M4)’) obtained from the foreskin of a child, and human mammary epithelial cell (HMEC) (hereinafter, referred to as ‘HMEC cell’ or ‘HMEC’) obtained from ATCC® PCS-600-010™. The young cells for the purposes of the experiments were cells of the above cell lines that were passaged 10 times or less and have a doubling time of about 1 day. The senescent cells were cells of the same cell lines that were passaged 33 to 50 times and have a doubling time of about 14 days or longer. The young cells and senescent cells were inoculated in 6-well plates at a density of 50,000 cells/well and 20,000 cells/well, respectively. The inoculated cells were cultured in 2 ml of a DMEM medium containing 10% (v/v) FBS, and 1× penicillin/streptomycin and high concentrations of glucose, glutamine, and pyruvate under conditions of 37° C. and 5% CO2 for 3 days.
mRNAs were isolated from all the cells thus prepared, and then quantitative polymerase chain reaction (qPCR) was performed using nucleotide sequences of SEQ ID NOS: 22 and 23 as PINT primers to measure PINT levels.
To inhibit PINT gene expression and/or PINT activity, the following 5 siRNAs including sequences complementary to PINT gene of SEQ ID NO: 1 were designed and synthesized (Cosmogenetech, Korea).
The siRNAs includes nucleotide sequences of SEQ ID NO: 12 and SEQ ID NO: 13; SEQ ID NO: 14 and SEQ ID NO: 15; SEQ ID NO: 16 and SEQ ID NO: 17; SEQ ID NO: 18 and SEQ ID NO: 19; and SEQ ID NO: 20 and SEQ ID NO: 21, respectively and hereinbelow, these siRNAs are called siPINT-1, siPINT-2, siPINT-3, siPINT-4, and siPINT-5, respectively.
It was examined whether the siRNAs decrease PINT levels in senescent cells. First, HDF(neonatal) young cells being passaged 9 times and having a doubling time of 1 day and HDF(neonatal) senescent cells being passaged 49 times and having a doubling time of 14 days, which were prepared in section 1, were transfected with 25 nM siRNA. The cells were cultured for 72 hours under the same conditions as in section 1, except that each siRNA was mixed with 1 μL of a Dharmacon transfection reagent (Dharmacon), and added to media. A negative control group was prepared in the same manner, except that scramble siRNA was added instead of the siRNAs. After culturing, PINT levels in the cells were measured in the same manner as in section 1. As a result, when siPINT-1, siPINT-2, siPINT-3, siPINT-4, and siPINT-5 were used, the PINT levels were decreased by 36, 0, 67, 50, and 0%, respectively, as compared to the control group.

[1] = tested on: HDF(neonatal) senescent cells; assay: Immunoblotting of phosphorylated H2AX (gamma-H2AX) in siRNA-introduced cells; conditions: HDF(neonatal) senescent cells vs young cells, 25 nM siRNA, 72 hours
Experimental: (§1) HDF(neonatal) young cells being passaged 9 times and having a doubling time of 1 day and HDF(neonatal) senescent cells being passaged 49 times and having a doubling time of 14 days, which were prepared in section 1, were cultured for 72 hours under the same conditions as in section 1, except that each 25 nM of siPINT-3 and siPINT-4 was mixed with 1 μL of a Dharmacon transfection reagent (Dharmacon) and added to media. A negative control group was prepared in the same manner, except that scramble siRNA (hereinafter, also called ‘siCTRL’) was added instead of the siRNAs.
After culturing, proteins were isolated from siRNA-introduced cells, and then the isolated proteins were subjected to immunoblotting using anti-GAPDH and anti-phosphorylated-H2AX. H2AX becomes phosphorylated on serine 139 as a reaction on DNA Double-strand breaks (DSB), and is also called gamma-H2AX. Gamma-H2AX is an indicator of DNA damage.

[2] = tested on: HDF(neonatal) young and senescent cells; assay: Selective death of senescent cells by inhibition of PINT expression (cell number after culturing); conditions: siRNA transfection, cultured 14 days
Experimental: HDF(neonatal) young cells being passaged 9 times and having a doubling time of 1 day and HDF(neonatal) senescent cells being passaged 49 times and having a doubling time of 14 days, which were prepared in section 1, were transfected with each of siPINT-1, siPINT-2, siPINT-3, siPINT-4, and siPINT-5 in the same manner as in section 3.2, and further cultured in wells of 6-well plates for 14 days under the same conditions as in section 1. A negative control group was prepared in the same manner, except that scramble siRNA (hereinafter, also called ‘siCTR’) was added instead of the siRNAs.
In FIG. 5, siCTR represents control siRNA, and siPINT represents siPINT-3 among the five used siPINTs. […] However, there was little change in the number of young cells by inhibition of PINT lincRNA expression.

[3] = tested on: HDF(neonatal) senescent cells; assay: DNA comet assay in siRNA-introduced cells; conditions: 25 nM siRNA, 72 hours; for tail moment: control senescent cells 2.86, young cells 0.52
Experimental: as §1
Further, DNAs were isolated from the same cells, followed by DNA comet assay. This method is performed by detecting DNA strand break in cells, based on gel electrophoresis. […] After staining a slide with SYBR Green, a length of a tail of DNA fragment was measured under a fluorescence microscope to examine DNA damage.

| Compound | PINT levels decreased as compared to the control group (PINT) | gamma-H2AX levels (indicator of DNA damage) [1] | tail moment [3] | also measured |
| --- | --- | --- | --- | --- |
| C[C@@]1(CO)[C@H](O)CC[C@@]2(C)[C@H]1CC[C@H]1C[C@@H]3C[C@@]12CC[C@]3(O)CO [aphidicolin] | – | – | – | relative PINT level (PINT lincRNA; HDF(M4) young cells): 1.95; relative PINT level (PINT lincRNA; HDF(neonatal) young cells): 2.72 |
| siPINT-2: siRNA complementary to PINT gene, nucleotide sequences of SEQ ID NO: 14 and SEQ ID NO: 15 (chain 1 UGGGAUAAUUUGCCAUCUGGAGUUU; chain 2 AAACUCCAGAUGGCAAAUUAUCCCA; listed as RNA, chemistry not given here) | 0% | – | – | – |
| siPINT-5: siRNA complementary to PINT gene, nucleotide sequences of SEQ ID NO: 20 and SEQ ID NO: 21 (chain 1 AGCCAGGAAGAGGGACUGGAACCAU; chain 2 AUGGUUCCAGUCCCUCUUCCUGGCU; listed as RNA, chemistry not given here) | 0% | – | – | – |
| siPINT-3: siRNA complementary to PINT gene, nucleotide sequences of SEQ ID NO: 16 and SEQ ID NO: 17 (chain 1 AUGUAUCAAAUGCCUGGUUCUAUUU; chain 2 AAAUAGAACCAGGCAUUUGAUACAU; listed as RNA, chemistry not given here) | 67% | specifically increased | 3.68 | number of senescent cells compared to the negative control group ([2]; HDF(neonatal) senescent cells): remarkably decreased; change in the number of young cells ([2]; HDF(neonatal) young cells): little change; DNA damage (comet tails, photograph) compared to senescent cells without siPINT introduction [3]: remarkably increased DNA damage |
| siPINT-1: siRNA complementary to PINT gene, nucleotide sequences of SEQ ID NO: 12 and SEQ ID NO: 13 (chain 1 AAGAAAUACGCAGAACUGAUUCCUG; chain 2 CAGGAAUCAGUUCUGCGUAUUUCUU; listed as RNA, chemistry not given here) | 36% | – | – | – |
| siPINT-4: siRNA complementary to PINT gene, nucleotide sequences of SEQ ID NO: 18 and SEQ ID NO: 19 (chain 1 AAGUAGGAGCCACGAAAUGUCAUUU; chain 2 AAAUGACAUUUCGUGGCUCCUACUU; listed as RNA, chemistry not given here) | 50% | specifically increased | 5.58 | – |
